# In US5373040A, “Amorphous solid modification of 2,2',2"-nitrilo[triethyl-tris-(3,3',5,5'-tetra-tert-butyl-1,1'-biphenyl- 2,2'-diyl)phosphite]” (Ciba-Geigy Corporation, priority 1993, dated 1994):
# Columns and labels:
# [1] = Stabilization of 6,6-nylon: yellowness index; conditions: 0.5% by weight; versus unstabilized control plaques
# Procedure: 6,6-Nylon (ZYTEL® 101, DuPont) is thoroughly dried in a vacuum oven and tumble blended with 0.5% by weight of the compound of instant Example 1. The polyamide is extruded on a 1" (2.54 cm) MPM extruder at 575° F. (302° C.). The collected pellets are injection molder at 575° F. (302° C.) with the mold at 150° C. in a BOY 30M injection molder. The plaques obtained are measured for yellowness index (YI) values using ASTM D1925-70.
# [2] = Apparent bulk density (ASTM D-1895); assay type: physicochemical
# Procedure: The apparent bulk density of the solids is measured according to the method of ASTM D-1895 (79). A higher apparent bulk density allows for a greater mass per unit volume which affords advantages in packaging of the solid product, such as lower costs for the packaging material, less storage space is required, etc.
# [3] = Stabilization of polycarbonate: yellowness index; conditions: 0.08 weight percent plus 0.3 weight percent TINUVIN 329; versus UV absorber alone
# Procedure: Additive free bisphenol A polycarbonate (LEXAN® 141-111N, General Electric) is dried and blended with 0.3 weight percent of a benzotriazole UV absorber TINUVIN® 329, Ciba-Geigy) and 0.08 weight percent of instant compound of Example 1. The mixture is extruded and pelletized at 550° F. (288° C.) on a 1" (2.54 cm) single screw extruder. Injection molded plaques (2"×2"×125 mil; 5.08 cm×5.08 cm×3.175 mm) are prepared in a BOY 30M injection molder at 560° F. (293° C.) with a mold temperature of 150° C. The resulting plaques are measured for yellowness index (YI) using ASTM D 1925-70.
# [4] = Stabilization of poly(butylene terephthalate): intrinsic viscosity; conditions: 0.3% by weight; second pass extrudate and injection molded plaques; versus PBT containing no stabilizer
# Procedure: (§1) Poly(butylene terephthalate), PBT (RYNITE® 9160, DuPont) is tumble blended with 0.3% by weight of the compound of instant Example 1. The polymer is then extruded and pelletized at 260° C. A portion of the collected pellets are reextruded under the same conditions for a second pass. The remainder from the first extrusion is injection molded into 2"×2"×125 mil (5.08 cm×5.08 cm×3.175 mm) plaques at 540° F. (282° C.) with a 100° C. mold temperature in a BOY 30M molder. Intrinsic viscosities of the second pass extrudate and the injection molded plaques are determined.
# [5] = Stabilization of unsaturated elastomer: time until onset of crosslinking; conditions: 0.5% by weight, 150° C., 60 rpm; versus unstabilized SBR
# Procedure: The instant compound of Example 1 is evaluated in an emulsion of SBR (cold polymerized, 23.5% styrene with a 52 Mooney Viscosity). The unstabilized SBR (60 g) is added to the mixing chamber of a Brabender Plasticorder set at 150° C. and 60 rpm. After 30 seconds, 0.5% by weight of the compound of instant Example 1 is added to the chamber. Stability of the SBR is determined by the time until onset of crosslinking of the rubber as indicated by an increase in the torque curve.
# [6] = Stabilization of poly(butylene terephthalate): yellowness index; conditions: 0.3% by weight; versus control unstabilized PBT
# Procedure: as §1
# The plaques are measured for yellowness index (color) using ASTM D 1925-70.
# [7] = Stabilization of poly(ethylene terephthalate): intrinsic viscosity; conditions: 0.5% by weight, five extrusion passes; versus PET containing no stabilizer
# Procedure: Poly(ethylene terephthalate), PET (KODAPAR® 7352, Eastman Chemical) is tumble blended with 0.5% by weight of the compound of instant Example 1. The polymer is then extruded and pelletized at 500° F. (260°C.) in a MPM 1" (2.54 cm) single screw extruder. The pellets are collected, redried and reextruded 5 times. Pellets are collected from each extrusion pass and the polymer intrinsic viscosity measured.
# [8] = Stabilization of ABS: yellowness index; conditions: 0.25 g per 100 g of ABS; air oven at 180° C. for 45 minutes; versus unstabilized ABS resin
# Procedure: A solution of 0.25 g of the instant compound of Example 1 in 40 ml of hexane/methanol is added to a rapidly stirred suspension of 100 g of ABS (acrylonitrile/butadiene/styrene terpolymer) in 600 g of water. The suspension is filtered and dried under vacuum at 40° C. for 40 hours. To the dried powder is added 2% by weight of titanium dioxide and 1% by weight of N,N'-ethylenebisstearamide on a two roll mill at 180° C. over four minutes. Compression molded plaques (0.8 mm) are prepared at 175° C. and placed in an air oven at 180° C. for 45 minutes. The color of said plaques are determined as yellowness index values using ASTM D1925-70.
# [9] = Solubility in LLDPE film by diffusion-in, X-ray fluorescence; assay type: physicochemical
# Procedure: Experiments are carried out to determine the solubility of the instant compound into linear low density polyethylene (LLDPE) films at 20° C., 40° C. and 60° C. by diffusion-in of a relatively homogeneous particle size (<70 microns) of the test sample suspended in silicon oil.
# Each sample is carefully ground with a mortar and pestle and the particle size below 70 microns is separated by sieving with a 200 mesh screen. The powder is then suspended in silicon oil (polydimethylsiloxane, L-45, Union Carbide Chemicals) at a concentration of approximately 38% (wt/wt). A few drops of this suspension is placed on a 10 mil (0.254 mm) thick, 2"×2" (5.08 cm×5.08 cm) compression molded film and a second film of the same dimension is placed on top. The films are gently pressed together so that the suspension forms a thin liquid layer between the polymer films. Excess suspension is removed and the procedure is repeated till a stack of eight films (six films for evaluation) are prepared. The stack is then placed between two 2.5"×2.5" (6.35 cm×6.35 cm) ceramic tiles and wrapped in aluminum foil and held together with a G-clamp. Each stack is aged at 20° C., 40° C. and 60° C. under a nitrogen atmosphere. At specified intervals, a single film is removed from the stack and the excess suspension is washed from the film with hexane. The film is then analyzed by X-ray fluorescence for total phosphorus content. LLDPE containing 0, 1000 ppm and 2000 ppm of the test compound are used as standard controls for this X-ray fluorescence method.
smiles,measurement,setting,value
"CC(C)(C)c1cc(C(C)(C)C)c2op(OCCN(CCOp3oc4c(C(C)(C)C)cc(C(C)(C)C)cc4c4cc(C(C)(C)C)cc(C(C)(C)C)c4o3)CCOp3oc4c(C(C)(C)C)cc(C(C)(C)C)cc4c4cc(C(C)(C)C)cc(C(C)(C)C)c4o3)oc3c(C(C)(C)C)cc(C(C)(C)C)cc3c2c1 [Example 1, 2,2',2""-nitrilo[triethyl-tris-(3,3',5,5'-tetra-tert-butyl-1,1'-biphenyl-2,2'-diyl)phosphite]]",yellowness index (YI),[1],lower YI values (less discoloration)
same,Bulk Density,[2],0.49 g/mL
same,yellowness index (YI),[3],lower YI values
same,retention of intrinsic viscosity value,[4],better retention of intrinsic viscosity value
same,induction time till crosslinking occurs,[5],longer induction time
same,yellowness index (color),[6],lower YI values (less discoloration)
same,retention of original intrinsic viscosity,[7],higher retention of original intrinsic viscosity
same,yellowness index,[8],lower yellowness index values (less discoloration)
same,Solubility of Compound in LLDPE at 20° C.,[9]; interval 15 (time unit not given),7200 ppm
same,Solubility of Compound in LLDPE at 20° C.,[9]; interval 28 (time unit not given),5100 ppm
same,Solubility of Compound in LLDPE at 20° C.,[9]; interval 35 (time unit not given),3800 ppm
same,Solubility of Compound in LLDPE at 20° C.,[9]; interval 44 (time unit not given),4700 ppm
same,Solubility of Compound in LLDPE at 40° C.,[9]; interval 10 (time unit not given),2500 ppm
same,Solubility of Compound in LLDPE at 40° C.,[9]; interval 17 (time unit not given),2100 ppm
same,Solubility of Compound in LLDPE at 40° C.,[9]; interval 25 (time unit not given),2400 ppm
same,Solubility of Compound in LLDPE at 40° C.,[9]; interval 34 (time unit not given),1700 ppm
same,Solubility of Compound in LLDPE at 40° C.,[9]; interval 40 (time unit not given),1900 ppm
same,Solubility of Compound in LLDPE at 40° C.,[9]; interval 47 (time unit not given),2200 ppm
same,Solubility of Compound in LLDPE at 20° C.,"[9]; third section, interval 6 (time unit not given)",3400 ppm
same,Solubility of Compound in LLDPE at 20° C.,"[9]; third section, interval 14 (time unit not given)",4000 ppm
same,Solubility of Compound in LLDPE at 20° C.,"[9]; third section, interval 22 (time unit not given)",4500 ppm
same,Solubility of Compound in LLDPE at 20° C.,"[9]; third section, interval 28 (time unit not given)",3800 ppm
same,Solubility of Compound in LLDPE at 20° C.,"[9]; third section, interval 37 (time unit not given)",4100 ppm
same,solubility in LLDPE,"[9]; versus prior art compound of Example 4 of U.S. Pat. No. 4,318,845",far more soluble
